pIC50: −log10 of the molar value.

Results on 6 molecules are retold here after patent publication US4554272A, “Substituted quinazolino-1,4-benzodiazepin-6,9-diones and their preparation” (Merck & Co., Inc., priority 1985, dated 1985).

One experiment concerns the target T1, CCK receptor (pancreas) (Rattus norvegicus, UniProt P30551).
T1 construct: The whole pancreas of a male Sprague-Dawley rat; from tissue; host or cells: whole pancreas of male Sprague-Dawley rat, washed membrane suspension
T1 sequence (P30551 1-444): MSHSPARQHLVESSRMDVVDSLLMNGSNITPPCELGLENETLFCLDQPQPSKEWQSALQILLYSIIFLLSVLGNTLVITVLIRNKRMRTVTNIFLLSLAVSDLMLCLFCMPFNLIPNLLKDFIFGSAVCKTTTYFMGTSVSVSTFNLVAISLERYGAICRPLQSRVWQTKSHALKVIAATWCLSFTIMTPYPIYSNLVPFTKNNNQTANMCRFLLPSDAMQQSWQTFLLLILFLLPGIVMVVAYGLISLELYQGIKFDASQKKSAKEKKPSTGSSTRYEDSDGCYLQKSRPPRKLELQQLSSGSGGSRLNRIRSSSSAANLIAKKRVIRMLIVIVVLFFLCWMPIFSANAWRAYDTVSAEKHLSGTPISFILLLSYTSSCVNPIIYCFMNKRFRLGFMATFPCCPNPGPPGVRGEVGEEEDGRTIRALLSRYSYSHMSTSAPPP
Description: CCK Receptor Binding (pancreas). More on the design: species or system rat (male Sprague-Dawley). To be noted: for pIC50: rat pancreas membranes, 125I-CCK-33, 37° C., 30 minutes, read-out: I-CCK-8 Pancreas IC50. An excerpt: (§1) Screening of the novel compounds according to the present invention to determine biological activity and obtain an IC50 value for them (in order to identify significant CCK-antagonism) is accomplished using an ^125 I-CCK receptor binding assay and in vitro isolated tissue preparations. These tests involve the following:
CCK Receptor Binding (pancreas) Method
CCK-33 is radiolabeled with ^125 I-Bolton Hunter reagent (2000 Ci/mmole), as described by Sankara et al. (J. Biol. Chem., 254, 9349-9351, 1979). Receptor binding is performed according to Innis and Snyder (Proc. Natl. Acad. Sci., 77, 6917-6921, 1980), with the minor modification of adding the additional protease inhibitors, phenylmethane sulfonyl fluoride and o-phenanthroline, which have no effect on the ^125 I-CCK receptor binding assay.
The whole pancreas of a male Sprague-Dawley rat (200-350 g), which has been sacrificed by decapitation, is dissected free of fat tissue and homogenized in 20 volumes of ice-cold 50 mM Tris HCl (pH 7.7 at 25° C.) with a Brinkman Polytron PT-10. The homogenates are centrifuged at 48,000 g for 10 minutes, then the resulting pellets are resuspended in Tris Buffer, centrifuged as above, and resuspended in 200 volumes of binding assay buffer (50 mM Tris HCl, pH 7.7 at 25° C., 5 mM dithiothreitol, 0.1 mM bacitracin, 1.2 mM phenylmethane sulfonyl fluoride and 0.5 mM o-phenanthroline).
For the binding assay, 25 μl of buffer (for total binding), or unlabeled CCK-8 sulfate sufficient to give a final concentration of 1 μM of CCK-8 (for nonspecific binding), or the compounds of the formula of the compounds according to the instant invention (for determination of antagonism to ^125 I-CCK binding) and 25 μl of ^125 I-CCK-33 (30,000-40,000 cpm), are added to 450 μl of the membrane suspensions in microfuge tubes. All assays are run in duplicate or triplicate, and the reaction mixtures are incubated at 37° C. for 30 minutes and centrifuged in a Beckman Microfuge (4 minutes) immediately after adding 1 ml of ice-cold incubation buffer. The supernatant is aspirated and discarded, and the pellets are counted with a Beckman Gamma 5000.
(§2) Representative formula I compounds listed were tested as CCK-antagonists (in I-CCK-8 pancreas and ^125 I-CCK Brain assays) with results, as tabulated in the following table.

Experiment [1] deals with T2, CCK receptor (brain, cerebral cortex) (Cavia porcellus, UniProt H0VZC5).
T2 construct: The cerebral cortex is dissected and used as a receptor source; from tissue; host or cells: cerebral cortex of male Hartley guinea pig, washed membrane suspension
T2 sequence (H0VZC5 1-426): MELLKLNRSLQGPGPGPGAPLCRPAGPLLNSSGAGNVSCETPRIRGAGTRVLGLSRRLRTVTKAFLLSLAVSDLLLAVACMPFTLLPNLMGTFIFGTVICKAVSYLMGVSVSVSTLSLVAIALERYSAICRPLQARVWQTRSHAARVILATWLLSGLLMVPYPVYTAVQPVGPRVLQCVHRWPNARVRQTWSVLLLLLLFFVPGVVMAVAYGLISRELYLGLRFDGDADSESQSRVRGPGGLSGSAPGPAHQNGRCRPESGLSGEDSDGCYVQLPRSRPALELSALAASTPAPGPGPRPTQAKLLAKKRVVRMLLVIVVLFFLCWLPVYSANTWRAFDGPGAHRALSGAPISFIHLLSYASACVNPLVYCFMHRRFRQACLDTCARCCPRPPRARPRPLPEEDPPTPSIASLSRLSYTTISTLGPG
The experiment is described as follows: CCK Receptor Binding (brain). Set-up: species or system guinea pig (male Hartley). To be noted: guinea pig cerebral cortex; 125I-CCK-33, pH 6.5, 25° C., 2 hours. As to the method:
as §1
(§3) CCK Receptor Binding (brain) Method
(§4) CCK-33 is radiolabeled and the binding is performed according to the description for the pancreas method, with modifications according to Saito et al., J. Neurochem., 37, 483-490, 1981.
(§5) Male Hartley guinea pigs (300-500 g) are sacrificed by decapitation, and the brains are removed and placed in ice-cold 50 mM Tris HCl (Trizma-7.4) [pH 7.4 at 25° C.]. The cerebral cortex is dissected and used as a receptor source and each gram of fresh guinea pig brain tissue is homogenized in 10 ml of Tris/Trizma buffer with a Brinkman polytron PT-10. The homogenates are centrifuged at 42,000 g for 15 minutes, then the resulting pellets are resuspended in 80 volumes of binding assay buffer (10 mM N-2-hydroxyethyl-piperazine-N'-2-ethanesulfonic acid (HEPES), 5 mM MgCl2, 1 mM ethylene glycol-bis(β-amino-ethyl-ether-N,N'-tetraacetic acid (EGTA), 0.4% BSA and 0.25 mg/ml bacitracin, pH 6.5).
(§6) The remainder of the inding assay method is as described for the pancreas method, except that the reaction mixtures are incubated at 25° C. for 2 hours before […].
as §2

In experiment [2] the test system is CCK receptor (brain, cerebral cortex). The experiment is described as follows: CCK Receptor Binding (brain). Set-up: species or system guinea pig (male Hartley). Particulars: in words, comment on Table 1 (pancreas vs brain); especially vs formula Ia and Example 13. As to the method: as §1, §3, §4, §5, §6, §2

What is called pIC50 is −log10 of the IC50, conventionally taken in molar units. As for `O=C1Nc2ccccc2-c2nc3ccccc3c(=O)n2[C@H]1Cc1c[nH]c2ccccc12` [*, 7β-[(1H-indol-3-yl)methyl]quinazoline(3,2-D)(1,4)benzodiazepin-6,9(5H,7H)-dione, reference compound], the negative logarithm of the IC50 (pIC50) is 4.12 on CCK receptor (pancreas) and 3.96 in experiment [1].
Turning to `O=C1Nc2ccccc2-c2nc3ccccc3c(=O)n2[C@@H]1Cc1c[nH]c2ccccc12` [Example 13, 7α-[(1H-indol-3-yl)methyl]quinazolino(3,2-D)-1,4-benzodiazepin-6,9(5H,7H)-dione hydrate], the “potency compared with the formula Ia compound” value on CCK receptor (pancreas) (in words, comment on Table 1 (pancreas and brain binding)) is “improved”. The pIC50 is 4.17 at CCK receptor (pancreas) and 4.00 in experiment [1].
Take `C[C@H]1C(=O)Nc2ccccc2-c2nc3ccccc3c(=O)n21` [Example 14, 7β-methylquinazolino(3,2-D)(1,4)benzodiazepin-6,9-(5H,7H)-dione]: the pIC50 (on CCK receptor (pancreas); in experiment [1]) was 4.00 in each case.
On to `O=C1Cn2c(nc3ccccc3c2=O)-c2ccccc2N1` [Example 15, quinazolino(3,2-D)(1,4)benzodiazepin-6,9(5H,7H)-dione], for which the pIC50 (on CCK receptor (pancreas); in experiment [1]) was 4.00 throughout.
With `O=C1Nc2ccccc2-c2nc3ccccc3c(=O)n2[C@H]1Cc1ccc(O)cc1` [Example 16, 7β-[(4-hydroxyphenyl)methyl]quinazolino(3,2-D)(1,4)-benzodiazepin-6,9(5H,7H)-dione hydrate], the pIC50 (at CCK receptor (pancreas); in experiment [1]) was 4.00 each time.
With `CN1C(=O)[C@H](Cc2c[nH]c3ccccc23)n2c(nc3ccccc3c2=O)-c2ccccc21` [Example 19, 5-methyl-7β-[(1H-indol-3-yl)methyl]quinazolino(3,2-D)(1,4)benzodiazepin-6,9(5H,7H)-dione hydrate], the pIC50 was 3.98 at CCK receptor (pancreas) and 4.29 in experiment [1]. Further, the “selectivity compared with the other compounds” value in experiment [2] was “substantial change in selectivity”.
